Results: patent US5854241A, “Pyrido[3,2,1-I,J][3,1]benzoxazine derivatives” (Bayer Aktiengesellschaft, priority 1994, dated 1998)
≈ marks a conversion by molar mass, not a printed value. Read-outs that look alike come from different tables or passages of the source.

Legend:
Assay type in all cases: cell-based
[1] = system: Staphylococcus aureus; test: MIC by serial agar dilution, Staphylococcus aureus; conditions: 20 h, Iso-Sensitest agar, 37° C., approx. 20 hours
Protocol: (§1) The minimum inhibitory concentrations (MICs) were determined by serial dilution methods using Iso-Sensitest agar (Oxoid). For each test substance, a series of agar plates was prepared whose active compound concentrations decreased as the dilution was doubled. The agar plates were inoculated using a multipoint inoculator (Denley). The cultures used for inoculation were overnight cultures of the pathogen which had previously been diluted to such an extent that each inoculation point contained approximately 10^4 colony-forming units. The inoculated agar plates were incubated at 37° C., and the microbial growth was read off after approximately 20 hours.
(§2) The following table lists the MIC values of some of the compounds according to the invention in comparison with 9-fluoro-3-methyl-10-(4-methyl-1-piperazinyl)-7-oxo-1H,3H,7H-pyrido[3,2,1- i,j]-[3,1]-benzoxazine-6-carboxylic acid (EP-O 373 531) as reference compound.

[2] = system: E. coli; test: MIC by serial agar dilution, E. coli; conditions: Escherichia coli, 20 h, Iso-Sensitest agar, 37° C., approx. 20 hours
Protocol: as §1, §2

[3] = system: Pseudomonas; test: MIC by serial agar dilution, Pseudomonas; conditions: Pseudomonas strain BS 698 TGD; Iso-Sensitest agar, 37° C., approx. 20 hours
Protocol: as §1, §2

[4] = system: Salmonella; test: MIC by serial agar dilution, Salmonella; conditions: Salmonella strain 1 Fr; Iso-Sensitest agar, 37° C., approx. 20 hours
Protocol: as §1, §2

[5] = system: Klebsiella pneumoniae; test: MIC by serial agar dilution, Klebsiella pneumoniae; conditions: Klebsiella pneumoniae strain 2363 Ge; Iso-Sensitest agar, 37° C., approx. 20 hours
Protocol: as §1, §2

[6] = system: Enterobacter; test: MIC by serial agar dilution, Enterobacter; conditions: Enterobacter strain 0,4 Ge 02-33; Iso-Sensitest agar, 37° C., approx. 20 hours
Protocol: as §1, §2

[7] = Staphylococcus aureus strain 3781 Ge
[8] = Staphylococcus aureus strain Z 2 Lit
[9] = E. coli strain Z 431 Lit, read-out: MIC

SMILES	MIC [1, 7]	MIC [1, 8]	MIC ([2]; E. coli strain 21 Bui)	MIC [2, 9]	MIC [3]	MIC [4]	MIC [5]	MIC [6]	MIC ([2]; E. coli strain Z 431 Lit)
CC1OCc2c(N3CC4CCCNC4C3)c(F)cc3c(=O)c(C(=O)O)cn1c23 (centres unmarked) [Example 4, 10-(2.8-Diazabicyclo[4,3,0]nonan-8-yl)-9-fluoro-3-methyl-7-oxo-1H,3H,7H-pyr ido-[3,2,1-i,j][3,1]benzoxazine-6-carboxylic acid]	8 µg/mL (≈ 20.6 µM)	0.5 µg/mL (≈ 1.29 µM)	4 µg/mL (≈ 10.3 µM)	0.06 µg/mL (≈ 0.155 µM)	8 µg/mL (≈ 20.6 µM)	0.25 µg/mL (≈ 0.645 µM)	0.12 µg/mL (≈ 0.31 µM)	0.12 µg/mL (≈ 0.31 µM)	–
CC1OCc2c(N3CC4CC=CC(N)C4C3)c(F)cc3c(=O)c(C(=O)O)cn1c23 (centres unmarked) [Example 1, 10-(2-Amino-8-azabicyclo[4,3,0]non-3-en-8-yl)-9-fluoro-3-methyl-7-oxo-1H,3H ,7H-pyrido-[3,2,1-i,j][3,1]benzoxazine6-carboxylic acid]	0.12 µg/mL (≈ 0.3 µM)	0.12 µg/mL (≈ 0.3 µM)	4 µg/mL (≈ 10 µM)	0.015 µg/mL (≈ 0.0376 µM)	4 µg/mL (≈ 10 µM)	0.06 µg/mL (≈ 0.15 µM)	0.06 µg/mL (≈ 0.15 µM)	0.25 µg/mL (≈ 0.626 µM)	–
CNC1C=CCC2CN(c3c(F)cc4c(=O)c(C(=O)O)cn5c4c3COC5C)CC21 (centres unmarked) [Example 5, 9-Fluoro-3-methyl-10-(2-methylamino-8-azabicyclo[4.3.0]non-3-en-8-yl)-7-oxo-1H,3H,7H-pyrido [3,2,1-i,j][3,]benzoxazine-6-carboxylic acid]	0.12 µg/mL (≈ 0.29 µM)	0.12 µg/mL (≈ 0.29 µM)	4 µg/mL (≈ 9.67 µM)	≤ 0.015 µg/mL	16 µg/mL (≈ 38.7 µM)	0.12 µg/mL (≈ 0.29 µM)	0.12 µg/mL (≈ 0.29 µM)	0.12 µg/mL (≈ 0.29 µM)	–
CC1OCc2c(N3CCN(C)CC3)c(F)cc3c(=O)c(C(=O)O)cn1c23 (centres unmarked) [Reference, 9-fluoro-3-methyl-10-(4-methyl-1-piperazinyl)-7-oxo-1H,3H,7H-pyrido[3,2,1-i,j]-[3,1]-benzoxazine-6-carboxylic acid, reference compound]	128 µg/mL (≈ 354 µM)	16 µg/mL (≈ 44.3 µM)	0.05 µg/mL (≈ 0.138 µM)	–	64 µg/mL (≈ 177 µM)	1 µg/mL (≈ 2.77 µM)	0.5 µg/mL (≈ 1.38 µM)	1 µg/mL (≈ 2.77 µM)	0.05 µg/mL (≈ 0.138 µM)
